The source of these data is patent EP1637537A1, “New medicaments” (Riemser Arzneimittel AG, priority 2004, dated 2006).

A short description of data set [1]: Serum/plasma concentration-time profile after oral dosing in volunteers. Type of data set: in vivo, männliche und weiblichen Probanden. The protocol:
Die Studie wurde an 12 männliche und weiblichen Probanden im Alter zwischen 18 und 45 Jahren durchgeführt. Der Wirkstoff (Methantheliniumbromid) wurden oral als Filmtablette oder als Lösung appliziert. Zu unterschiedlichen Zeiten nach der Dosierung wurden Messungen vorgenommen und Laborwerte zur Charakterisierung der Wirkung festgestellt.
Im Beispiel wurden 100 mg Wirkstoff als Filmtablette der folgenden Formulierung eingesetzt: • ◆ 50,0 mg Methantheliniumbromid • ◆ 30,0 mg Maisstärke • ◆ 18,75 mg Polyvinylprrolidon • ◆ 4,0 mg hochdisperses Siliziumdioxid • ◆ 146,25 mg Lactosemonohydrat • ◆ 1,0 mg Magnesiumsterarat • ◆ 1,0 mg Hydroxypropylmethylcellulose • ◆ 39,38 mg Talcum • ◆ 6,5 mg Gummi arabicum • ◆ 15,53 mg Calciumcarbonat • ◆ 7,73 mg Titandioxid • ◆ 6,58 mg Weißer Ton • ◆ 0,65 mg Macogol 6000 • ◆ 61,63 mg Saccharose • ◆ 1,0 mg E 100 • ◆ 0,1 mg Carnauba Wachs
Es ist auch möglich, eine reine Lösung von 100 mg Methantheliniumbromid in Wasser als Frischlösung herzustellen. Dabei empfiehlt es sich, den bitteren Geschmack des Wirkstoffes durch angenehme Geschmackskorrigentien zu überdecken. Hier bieten sich z. B. einige Spritzer eines Mundwassers mit Pfefferminzgeschmack an.
Ausdruck dafür ist das in der Figur 1 dargestellte Konzentrations-Zeit-Profil. Zu beachten ist eine deutliche individuelle Schwankungsbreite in der Serumkonzentration nach Zuführung beider Applikationsformen. […]

The subject of a further data set is Würgereiz. Description: Gag reflex inhibition after gag stimulus, clinical study. In kind it is in vivo, männlichen und weiblichen gesunden Probanden. The note with it: oral 100 mg as Vagantin® film tablet or fresh solution; tested immediately after application and 1, 2 and 6 hours later (Figur 2). As for the experimental part: (§1) In einer klinischen Studie an 10 männlichen und weiblichen gesunden Probanden im Alter zwischen 20 und 60 Jahren wurde die Ausschaltung bzw. Verzögerung des Würgereizes und der Verminderung des Speichelflusses bei ärztlichen oder zahnärztlichen Manipulationen im Rachenraum geprüft.
(§2) Die obengenannte Filmtablettenformulierung bzw. die dort genannte Lösung von 100 mg Methantheliniumbromid in Wasser als Frischlösung wurde auch hier verwendet.
(§3) Nach Würgereizstimulus wurde die Würgereflexhemmung unmittelbar nach Applikation, sowie im Abstand von 1, 2 und 6 Stunden danach geprüft. Gleichzeitig wurde die Speichelflußrate vor und nach Einnahme von Methantheliniumbromid in Form von Vagantin® gemessen. […] Die Ergebnisse sind in den Figuren. 2 und 3 dargestellt.

The next data set relates to Speichelfluß. Description: Saliva flow rate before and after intake, clinical study. In kind it is in vivo, männlichen und weiblichen gesunden Probanden. The note with it: oral 100 mg as Vagantin®; before and after intake (Figur 3). As for the experimental part:
as §1, §2, §3
Figur 3 zeigt die Speichelsekretion in Abhängigkeit von der Methanthelinkonzentration im Plasma nach oraler Gabe von 100 mg Wirkstoff an gesunde Freiwillige. Ferner kann von einem Methanthelinbromidgehalt im Plasma von etwa 5 ng/ml über einen Zweitraum von 8 Stunden ausgegangen werden (Figur 1).

Take `CC[N+](C)(CC)CCOC(=O)C1c2ccccc2Oc2ccccc21.[Br-]` [Methantheliniumbromid, N,N-Diethyl-N-methyl-2-(xanthenylcarbonyloxy)ethylammoniumbromid]: the concentration at 8 h in data set [1] (human, plasma, oral, 100 mg, over a period of 8 hours (Figur 1), read-out: Methanthelinbromidgehalt im Plasma) is around 5 ng/mL. Besides, the “Reaktion (Konzentrations-Zeit-Profil, Serumkonzentration)” value in data set [1] (oral drinking solution compared with film tablet, 100 mg (Figur 1)) is reported as “etwas stärkere Reaktion als die Filmtablette”. Besides, in the data set on Würgereiz, the Würgereflexhemmung result is recorded as “deutliche Verzögerung des Würgereizesreflexes”. Moreover, the Speichelflußrate result in the data set with Speichelfluß is listed as “deutliche Reduzierung des Speichelflusses”.
